Like-named read-outs stand apart in the source and are kept apart here.
Experiments:
[1] = biological target: Dα1/Dα2/Dβ1/Dβ2 nAChR (Drosophila melanogaster, UniProt P04755+P09478+P17644+P25162); assay: two-electrode voltage clamp of Xenopus oocytes, agonist concentration-response; format: cell-based
[2] = biological target: T1, Btα1/Btα2/Btα8/Btβ1 nAChR (Bombus terrestris, UniProt A0A9B0BGM1+A0A9B0F4H3+A0A9B2JDZ7+A0A9B2JMX7); assay: cell-based; parameters: species or system Xenopus laevis oocytes; conditions: Oocyte
[3] = biological target: T2, Amα1/Amα8/Amβ1 nAChR (Apis mellifera, UniProt A0A7M7MMZ9+A0A8U0WQ70+A0A8U0WQC0); assay: two-electrode voltage clamp of Xenopus oocytes, agonist concentration-response; format: cell-based
T2 sequence (A0A7M7MMZ9 44-627): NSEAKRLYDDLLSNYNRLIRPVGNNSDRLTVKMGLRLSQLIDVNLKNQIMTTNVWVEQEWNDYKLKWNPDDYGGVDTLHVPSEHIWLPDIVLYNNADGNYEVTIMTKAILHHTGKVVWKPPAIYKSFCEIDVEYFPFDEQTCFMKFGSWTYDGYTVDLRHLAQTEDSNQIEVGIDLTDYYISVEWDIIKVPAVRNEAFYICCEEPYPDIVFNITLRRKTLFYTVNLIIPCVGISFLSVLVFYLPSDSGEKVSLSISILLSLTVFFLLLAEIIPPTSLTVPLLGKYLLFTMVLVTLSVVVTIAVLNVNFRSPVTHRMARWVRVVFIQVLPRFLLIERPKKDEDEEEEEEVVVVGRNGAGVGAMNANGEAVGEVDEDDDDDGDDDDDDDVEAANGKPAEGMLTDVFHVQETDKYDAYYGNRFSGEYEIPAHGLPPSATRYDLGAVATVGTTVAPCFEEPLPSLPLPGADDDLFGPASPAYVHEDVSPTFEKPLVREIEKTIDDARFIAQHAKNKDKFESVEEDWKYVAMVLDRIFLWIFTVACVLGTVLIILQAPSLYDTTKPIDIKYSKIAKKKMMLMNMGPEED
T2 sequence (A0A8U0WQ70 25-537): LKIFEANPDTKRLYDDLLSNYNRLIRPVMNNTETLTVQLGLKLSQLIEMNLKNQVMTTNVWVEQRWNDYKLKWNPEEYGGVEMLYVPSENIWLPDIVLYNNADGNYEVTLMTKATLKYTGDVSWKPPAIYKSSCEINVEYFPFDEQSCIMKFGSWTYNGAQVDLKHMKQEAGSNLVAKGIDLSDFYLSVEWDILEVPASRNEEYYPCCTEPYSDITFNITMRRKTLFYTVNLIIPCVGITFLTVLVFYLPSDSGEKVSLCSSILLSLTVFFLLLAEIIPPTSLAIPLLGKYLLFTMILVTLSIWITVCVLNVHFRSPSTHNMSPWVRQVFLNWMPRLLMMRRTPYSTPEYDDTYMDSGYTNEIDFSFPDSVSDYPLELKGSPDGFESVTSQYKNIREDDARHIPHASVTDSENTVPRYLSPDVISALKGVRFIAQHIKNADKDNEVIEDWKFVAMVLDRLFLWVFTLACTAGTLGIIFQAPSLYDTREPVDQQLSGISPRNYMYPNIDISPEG
T2 sequence (A0A8U0WQC0 25-520): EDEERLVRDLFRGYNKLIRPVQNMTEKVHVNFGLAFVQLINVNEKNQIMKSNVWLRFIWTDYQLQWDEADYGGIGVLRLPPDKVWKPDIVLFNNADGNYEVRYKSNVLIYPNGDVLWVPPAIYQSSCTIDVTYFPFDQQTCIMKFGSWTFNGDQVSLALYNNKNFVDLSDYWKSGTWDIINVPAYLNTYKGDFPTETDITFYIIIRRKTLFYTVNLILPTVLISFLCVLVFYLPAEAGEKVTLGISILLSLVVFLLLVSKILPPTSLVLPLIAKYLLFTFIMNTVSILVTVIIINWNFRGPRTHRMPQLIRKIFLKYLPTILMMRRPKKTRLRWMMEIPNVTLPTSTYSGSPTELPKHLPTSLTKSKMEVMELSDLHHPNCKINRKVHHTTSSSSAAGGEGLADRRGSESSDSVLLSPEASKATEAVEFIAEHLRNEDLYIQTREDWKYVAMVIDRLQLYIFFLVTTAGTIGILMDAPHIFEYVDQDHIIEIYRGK

[4] = biological target: T1, Btα1/Btα2/Btα8/Btβ1 nAChR; assay: as above; format: cell-based

Row | SMILES | EC50 [1] | Emax ([2]; read-out: Thiacloprid / Imax) | EC50 [3] | EC50 [4] | Emax ([2]; read-out: Clothianidin / Imax) | Emax ([2]; read-out: Imidacloprid / Imax)
1 | N#C/N=C1\SCCN1Cc1ccc(Cl)nc1 [thiacloprid] | 0.0708 µM | 9.2 ± 1.1% | 0.0115 µM | 0.0724 µM | – | –
2 | CN/C(=N\[N+](=O)[O-])NCc1cnc(Cl)s1 [clothianidin] | – | – | 0.011 µM | 0.0389 µM | 68 ± 2.9% | –
3 | O=[N+]([O-])NC1=NCCN1Cc1ccc(Cl)nc1 [imidacloprid] | 0.12 µM | – | 0.0234 µM | 0.0398 µM | – | 8.5 ± 0.7%

— paper PMC7368294 (Proceedings of the National Academy of Sciences of the …, 2020)
